Reference: US7655683B2, “Imidazolopyrazole derivatives useful as selective androgen receptor modulators” (Janssen Pharmaceutica NV, priority 2006, dated 2010)
Where two headings read alike, the source gives them in different places.

What was measured:
[1] = test system: ventral prostate and levator ani of immature castrated male Sprague Dawley rats; experiment: Ventral Prostate and Levator ani Weight in vivo Assay (agonist activity); settings: once daily for five days, oral, vehicle = 0%, testosterone propionate = 100%, criteria at 30 mg/kg; for change in vivo at 30 mg/kg: Rattus norvegicus, 120 h; for % levator ani Stimulation / % Prostate Stimulation: 30 mg/kg
Method: Immature (approximately 50 g) castrated male Sprague Dawley rats (Charles River) were treated once daily for five days with test compound ([…], in 30% cyclodextrin or 0.5% methylcellulose vehicle), or with testosterone propionate (administered subcutaneously by injection at the nape of the neck at 5 mg/kg, in a volume of 0.1 mL in sesame oil), or with vehicle (1 mL of 30% cyclodextrin or 0.5% methylcellulose, given orally). On the sixth day, the rats were euthanized by asphyxiation in carbon dioxide. Ventral prostates and levator ani. muscle were removed and their wet weights determined.
Test compound activity was determined as the percent stimulation of tissue weight, with the vehicle-treated control group set to zero percent and the testosterone alone-treated control group set to 100%.

[2] = test system: ventral prostate and seminal vesicle of immature castrated male Sprague Dawley rats; experiment: Ventral Prostate and Seminal Vesicle Weight in vivo Assay (antagonist activity, with testosterone propionate); design: key to Inhibition of prostate (non-weight prostate weight, mg) / Inhibition of seminal vesicle (non-weight seminal vesicle weight, mg): level 1 agonist active if it produced greater than or equal to 30% stimulation of levator ani or ventral prostate at 30 mg/kg; level 2 agonist active if it produced greater than or equal to 5% but less than 30% stimulation of levator ani or ventral prostate at 30 mg/kg; listed herein as “inactive” as they did not meet the specified criteria defined above; settings: test compound oral plus testosterone propionate 2 mg/kg s.c., five days, criteria at 30 mg/kg; for inhibition in vivo at 30 mg/kg: Rattus norvegicus, 120 h
Method: Immature (approximately 50 g) castrated male Sprague Dawley rats (Charles River) were treated once daily for five days with test compound ([…], in 30% cyclodextrin or 0.5% methylcellulose vehicle) and with testosterone propionate (given subcutaneously by injection at the nape of the neck at 2 mg/kg, in a volume of 0.1 mL in sesame oil). On the sixth day, the rats were euthanized by asphyxiation in carbon dioxide. Ventral prosatates and seminal vesicles were removed and their wet weights determined. Test compound activity was determined as the percent inhibition of testosterone-enhanced tissue weights, with a vehicle-treated control group set to zero percent and a testosterone alone-treated control group set to 100%.

[3] = levator ani wet weight, read-out: % levator ani Stimulation
[4] = ventral prostate wet weight, read-out: % Prostate Stimulation
[5] = ventral prostate wet weight, read-out: Inhibition of prostate (non-weight prostate weight, mg)

SMILES: C[C@]12CC(C(F)(F)F)=NN1C(NC(=O)C(F)(F)F)=N/C2=N\c1ccc(C#N)c(C(F)(F)F)c1 [Compound 13, N-[4-(4-Cyano-3-trifluoromethyl-phenylimino)-3aR-methyl-2-trifluoromethyl-3a,4-dihydro-3H-imidazo[1,5-b]pyrazol-6-yl]-2,2,2-trifluoro-acetamide]
- change in vivo at 30 mg/kg [1, 3]: ≥ 30%
- change in vivo at 30 mg/kg [1, 4]: ≥ 30%
- inhibition in vivo at 30 mg/kg ([2]; seminal vesicle wet weight, read-out: Inhibition of seminal vesicle (non-weight seminal vesicle weight, mg)): 5 to 30%
- inhibition in vivo at 30 mg/kg [2, 5]: ≥ 30%

SMILES: C[C@@]12CC(C(F)(F)F)=NN1C(N)=NC2=Nc1ccc(C#N)c(C(F)(F)F)c1.O [Compound 19, 4-(6-Amino-3aS-methyl-2-trifluoromethyl-3,3a-dihydro-imidazo[1,5-b]pyrazol-4-ylideneamino)-2-trifluoromethyl-benzonitrile-Hydrates]
- % levator ani Stimulation ([1]; levator ani wet weight): level 1 (level 1 agonist active if it produced greater than or equal to 30% stimulation of levator ani or ventral prostate at 30 mg/kg)
- % Prostate Stimulation ([1]; ventral prostate wet weight): level 1 (level 1 agonist active if it produced greater than or equal to 30% stimulation of levator ani or ventral prostate at 30 mg/kg)
- Inhibition of seminal vesicle (non-weight seminal vesicle weight, mg) ([2]; seminal vesicle wet weight): level 1 (level 1 antagonist active if it produced greater than or equal to 30% inhibition of ventral prostate or seminal vesicle at 30 mg/kg)
- Inhibition of prostate (non-weight prostate weight, mg) ([2]; ventral prostate wet weight): level 1 (level 1 antagonist active if it produced greater than or equal to 30% inhibition of ventral prostate or seminal vesicle at 30 mg/kg)

SMILES: C[C@]12CC(C(F)(F)F)=NN1C(N)=NC2=Nc1ccc(C#N)c(C(F)(F)F)c1.O [Compound 20, 4-(6-Amino-3aR-methyl-2-trifluoromethyl-3,3a-dihydro-imidazo[1,5-b]pyrazol-4-ylideneamino)-2-trifluoromethyl-benzonitrile-Hydrates]
- % levator ani Stimulation ([1]; levator ani wet weight): level 2 (level 2 agonist active if it produced greater than or equal to 5% but less than 30% stimulation of levator ani or ventral prostate at 30 mg/kg)
- % Prostate Stimulation ([1]; ventral prostate wet weight): level 2 (level 2 agonist active if it produced greater than or equal to 5% but less than 30% stimulation of levator ani or ventral prostate at 30 mg/kg)
- Inhibition of seminal vesicle (non-weight seminal vesicle weight, mg) ([2]; seminal vesicle wet weight): level 1 (level 1 antagonist active if it produced greater than or equal to 30% inhibition of ventral prostate or seminal vesicle at 30 mg/kg)
- Inhibition of prostate (non-weight prostate weight, mg) ([2]; ventral prostate wet weight): level 2 (level 2 antagonist active if it produced greater than or equal to 5% but less than 30% inhibition of ventral prostate or seminal vesicle at 30 mg/kg)

SMILES: C[C@]12CC(C(F)(F)F)=NN1C(N)=N/C2=N\c1ccc(C#N)c(C(F)(F)F)c1 [Compound 2, 4-(6-Amino-3aR-methyl-2-trifluoromethyl-3,3a-dihydro-imidazo[1,5-b]pyrazol-4-ylideneamino)-2-trifluoromethyl-benzonitrile]
- change in vivo at 30 mg/kg [1, 3]: ≥ 30%
- change in vivo at 30 mg/kg [1, 4]: ≥ 30%
- inhibition in vivo at 30 mg/kg [2, 5]: 5 to 30%
- Inhibition of seminal vesicle (non-weight seminal vesicle weight, mg) ([2]; seminal vesicle wet weight): inactive

SMILES: C[C@]12CC(C(F)(F)F)=NN1C(N)=NC2=Nc1ccc(C#N)c(C(F)(F)F)c1.O [Compound 16, 4-(6-Amino-3aR-methyl-2-trifluoromethyl-3,3a-dihydro-imidazo[1,5-b]pyrazol-4-ylideneamino)-2-trifluoromethyl-benzonitrile-Hydrates]
- % levator ani Stimulation ([1]; levator ani wet weight): level 1 (level 1 agonist active if it produced greater than or equal to 30% stimulation of levator ani or ventral prostate at 30 mg/kg)
- % Prostate Stimulation ([1]; ventral prostate wet weight): level 1 (level 1 agonist active if it produced greater than or equal to 30% stimulation of levator ani or ventral prostate at 30 mg/kg)
- Inhibition of seminal vesicle (non-weight seminal vesicle weight, mg) ([2]; seminal vesicle wet weight): level 2 (level 2 antagonist active if it produced greater than or equal to 5% but less than 30% inhibition of ventral prostate or seminal vesicle at 30 mg/kg)
- Inhibition of prostate (non-weight prostate weight, mg) ([2]; ventral prostate wet weight): level 2 (level 2 antagonist active if it produced greater than or equal to 5% but less than 30% inhibition of ventral prostate or seminal vesicle at 30 mg/kg)
